In PubChem BioAssay (NCI):
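Cultured in 96-well plates, cells were exposed to test compound for 48 hours across five concentrations. GI50 = concentration required for 50% inhibition of growth. Definition used: TGI = concentration required for complete inhibition of growth.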

Experiments:
Experiment in all cases: growth of human tumour cells (NCI), 48 h
[1] = test system: TK-10 renal
[2] = test system: MOLT-4 leukemia
[3] = test system: COLO 205 colon
[4] = test system: HOP-62 NSCLC
[5] = test system: UACC-62 melanoma
[6] = test system: SK-OV-3 ovarian
[7] = test system: OVCAR-4 ovarian
[8] = test system: HCC-2998 colon
[9] = test system: SF-268 CNS

Row | Compound | TGI [1] [µM] | TGI [2] [µM] | TGI [3] [µM] | TGI [4] [µM] | TGI [5] [µM] | TGI [6] [µM] | GI50 [7] [µM] | TGI [7] [µM] | TGI [8] [µM] | TGI [9] [µM]
1 | Nc1ccc2[nH]c(-c3cccc(Cl)c3)cc(=O)c2c1 | 8.55 | > 100 | > 100 | > 100 | > 100 | > 100 | > 100 | > 100 | 54.4 | –
2 | O=C1C=CC(=O)c2c(O)c(NCCc3ccc(O)cc3)c(Cl)c(O)c21 | > 10 | > 10 | > 10 | > 10 | > 10 | > 10 | – | > 10 | > 10 | > 10
3 | CC(C)(C)C1CCC2(CC1)c1[nH]c3ccccc3c1C1(CCC(C(C)(C)C)CC1)c1[nH]c3ccccc3c12 (configuration not stated) | > 100 | > 100 | > 100 | > 100 | > 100 | > 100 | – | > 100 | > 100 | > 100
4 | O=C(Cc1ccccc1)NN1C(=O)/C(=C\c2ccc([N+](=O)[O-])cc2)SC1=Nc1ccccc1 | > 100 | > 100 | > 100 | > 100 | > 100 | > 100 | – | > 100 | > 100 | > 100
5 | C=c1c(OC)c(OC)c(O)c2c1=c1cc([N+](=O)[O-])cc(OC)c1=N2 | > 100 | > 100 | > 100 | > 100 | > 100 | > 100 | – | > 100 | > 100 | > 100
6 | Nc1c(C(=O)c2ccc(Cl)cc2)[nH]c(NCc2ccccc2)c1C(=S)Nc1ccccc1 | 4.25 | 6.49 | 26.2 | 12.9 | 21 | 49.8 | – | 4.15 | 1.98 | 8.44
7 | CC1S/C(=N/c2nnc(-c3ccccc3)o2)NC1=O (configuration not stated) | > 100 | > 100 | > 100 | > 100 | > 100 | – | – | > 100 | – | > 100
8 | O=C1C=C(c2ccccc2)O/C1=C/C(=O)c1ccc(Cl)cc1 | 35.3 | > 100 | 30.1 | 85.3 | 28.5 | > 100 | – | 32.9 | 32.2 | 54.6
9 | Cc1cc2ncc3c(=O)n(NS(=O)(=O)c4ccc(N)cc4)ccc3n2n1 | > 100 | > 100 | > 100 | > 100 | > 100 | > 100 | – | > 100 | – | > 100
10 | OC1(c2ccc(Cl)cc2)c2ccc3ccccc3c2C2=N[C@H]3CCCC[C@@H]3N21 (some centres not stated) | 4.87 | > 100 | > 100 | 11.5 | 41.4 | 65.3 | – | > 100 | – | > 100
11 | O=C(O)C(CS)N=c1c2ccccc2n(O)c2ccccc12 (configuration not stated) | > 100 | > 100 | > 100 | > 100 | > 100 | > 100 | – | > 100 | > 100 | > 100
12 | CN(C)CCn1c(=O)c2ccc(NCCCN(C)CCCNc3ccc4c(=O)n(CCN(C)C)c(=O)n5c6ccc([N+](=O)[O-])cc6c(=O)c3c45)c3c(=O)c4cc([N+](=O)[O-])ccc4n(c1=O)c23 | 1.52 | – | 0.204 | 0.842 | 0.318 | 0.886 | – | 0.0944 | 0.0921 | 0.733
13 | O=C(N/N=C/c1cc(Br)cc(Br)c1[O-])c1ccccc1O.O=C(N/N=C/c1cc(Br)cc(Br)c1[O-])c1ccccc1O.[Fe+2] | 28.5 | 19.8 | 35.8 | 8.53 | 10.5 | 13.9 | – | 18.4 | 12.5 | 38.9
14 | CC1(C(=O)O)CCCC1C(=O)O (configuration not stated) | > 100 | > 100 | – | > 100 | > 100 | – | – | > 100 | – | > 100
15 | O=C(CC1=NCCN1)c1ccccc1 | – | > 750 | > 750 | > 750 | > 750 | > 750 | – | > 750 | > 750 | > 750
16 | O=C(N/N=C/c1ccco1)c1cc(I)cc(I)c1O | – | > 50 | 45.6 | – | > 50 | – | – | > 50 | – | > 50
17 | Clc1ccc(OCc2nnc(CCCCCCCCc3nnc(COc4ccc(Cl)cc4)n3Nc3ccccc3)n2Nc2ccccc2)cc1 | > 100 | > 100 | 0.894 | > 100 | 38.8 | > 100 | – | > 100 | > 68.7 | > 100
18 | Cc1cc2[nH]c3c(C#N)c4c(c(=O)n3c2cc1C)CCCC4 | > 100 | > 100 | > 100 | – | > 100 | 27.1 | – | > 100 | > 100 | > 100
19 | Cc1nc(C)c(Cc2ccccc2)o1 | > 100 | > 100 | > 100 | > 100 | > 100 | > 100 | – | > 100 | > 100 | > 100
